# Columns and labels:
# NOD mice = assay: Development of autoimmune diabetes in NOD mice; type: in vivo, mouse; conditions: at 5.7 months; s.c. at weekly intervals, ampicillin 1300 μg or ceftriaxone 675 μg per mouse; blood sugar above 300 mg/dl on 2 measurements; control 60%
# Text: Inbred female Lewis rats and NOD (non-obese diabetic) mice were supplied by the animal breeding center of the Weizmann Institute of Science, Israel, under the supervision of Harlan Laboratories and were used at 2-3 months of age. Experiments were approved by the Institutional Animal Care and Use Committee. Human peripheral blood lymphocytes from healthy donors were obtained from the blood bank of Sheba Medical Center, Tel Hashomer, Israel.
# NOD mice spontaneously develop diabetes mellitus similar to type I diabetes in humans. […] The mice were followed for the development of diabetes, marked by blood sugar above 300 mg/dl on 2 measurements.
# [1] = test system: encephalitogenic BP10 line; assay: Adoptive EAE: BP10 T-cell line stimulated in vitro with test substance, then injected into naive rats; type: in vivo, rat
# Procedure: Antigen-specific T-cell lines were established from lymph node cells that had been stimulated with myelin basic protein (MBP; 10 μg/ml) for 3 days in stimulation medium as described below. Following stimulation, the T-cell blasts were isolated on LYMPHOPREP™ (Nycomed Pharma, Oslo, Norway) and seeded in propagation medium. Propagation medium was identical to stimulation medium without autologous serum, but supplemented with fetal calf serum 10% and T-cell growth factors from the supernatant of Con A stimulated spleen cells 10% (Mor et al. (1990) J Clin Invest, 85, 1594-1598). Animals were injected intra-peritoneally with 107 MBP-stimulated T cells, following 6-8 cycles of in vitro stimulations. It is known that MBP-reactive lines undergo a reduction in pathogenicity after 6 or more in vitro stimulations. In some experiments the BP10 line was stimulated with phorbol myristate acetate (PMA; 50 ng/ml) and ionomycin (500 ng/ml) for 3 days in stimulation medium, without antigen-presenting cells.
# Active EAE was induced by subcutaneous injection of 25 μg guinea-pig MBP (GpMBP) in complete Freund's adjuvant (CFA). […] Adoptive EAE was transferred by intra-peritoneal injection of guinea-pig MBP-activated cells of the BP10 line as described in Mor et al. (1993) J Clin Invest, 92, 2199-2206. […] Clinical scoring was: +1, paralysis of tail; +1.5, paresis of posterior paws and ataxia; +2, paraplegia; +3, paralysis extending to thoracic spine; +4, a moribund state.
# Treatment with cefuroxime in vivo could affect many different host agents involved in EAE or AA as well as influencing the rats' bacterial flora. To test whether the antibiotic might directly modify the behavior of effector T cells, an encephalitogenic T-cell line was stimulated in the presence or absence of cefuroxime in vitro. The weakly encephalitogenic BP10 line was used, and was stimulated for 3 days with MBP in the presence or absence of cefuroxime (50 μg/ml). The activated T cells were then washed to remove the antibiotic, the T cells were injected intra-peritoneally into naïve recipient rats (10^7 per rat), and EAE was scored. The BP10 line at later stimulations was used, when its pathogenic potential is reduced, allowing to detect both suppression and enhancement of disease. […] To rule out antigen presenting cells (APC) as the target of the beta-lactam antibiotic, the encephalitogenic BP10 line was stimulated without APC using PMA (50 ng/ml) and Ionomycin (500 ng/ml) in the presence or absence of cefuroxime.
# Additional beta-lactam antibiotics were tested for their effect on the adoptive transfer of EAE.
# A control group was injected with the untreated line.
# [2] = biological target: T1, 67 kDa protein of human CD4 and CD8 T cells (identified as albumin) (Homo sapiens, UniProt P02768); assay: Radioactive penicillin binding assay; conditions: 10 and 20 μCi tritium-labeled, 3 days with PMA and Ionomycin; SDS-PAGE autoradiography
# T1 construct: endogenous in cells; host or cells: primary human peripheral-blood T cells (CD3+, CD4+ or CD8+) from healthy donors
# Text: Tritium labeled benzylpenicillin was obtained from Amersham (Buckinghamshire, UK; 250 μCi, 1 mCi/ml). Human CD4 or CD8 T cells were stimulated in 24 well plates, 5×10^6 cells per ml, with PMA and Ionomycin for 72 hr in the presence of 10 or 20 μCi of labeled penicillin. Following stimulation, the cells were collected, lysed and separated by SDS PAGE. The gels were fixed, treated with 1M sodium salicylate, and dried. The dried gels were exposed to x-ray film (BioMax MS film) for 14 days, with intensifying screen (BioMax TranScreen, Eastman Kodak Co., New Haven Conn., USA), and were developed.
# To test whether beta-lactam antibiotics might affect T-cell behavior likewise by covalently binding a key T-cell protein, purified CD4 or CD8 human T cells were incubated with 10 and 20 μCi of tritium-labeled lactam benzylpenicillin (Amersham, Buckinghamshire, UK) for 3 days during stimulation with PMA and Ionomycin. The stimulated T cells were collected, washed, lysed and their proteins were subjected to SDS-PAGE separation. Dried gels were exposed in intensifying screens to Xray film for 2 weeks at −80° C. […] The intensity of the band was stronger at the 20 μCi concentration of penicillin.
# [3] = biological target: T2, albumin of human CD3 T cells (Homo sapiens, UniProt P02768); assay: Western blot with Pen 9 antibody of antibiotic-treated human T cells; type: cell-based; conditions: T cells activated by mitogen in presence of antibiotic
# T2 construct: endogenous in cells; host or cells: primary human peripheral-blood T cells (CD3+, CD4+ or CD8+) from healthy donors
# Procedure: Rat tissues were ground with a tissue grinder in lysis buffer. The homogenate was centrifuged 14000 g for 15 min in 4° C. and the supernatant was used for western blotting. The protein concentration was determined using the BIO-RAD DC™ protein assay (Bio-Rad laboratories, Hercules, Calif.). Following electrophoresis in SDS gel in a mini-gel apparatus (Bio-Rad), the gels were electro-transferred to nitrocellulose membranes (Schleicher and schuell, Dassel, Germany). The nitrocellulose membranes were washed with distilled water for 5 min, and then blocked for 60 min. using a blocking solution composed of 2% bovine serum albumin (Fraction V, Sigma, St. Louis Mo.), 2.5% milk powder (Bio-Rad), Tris (Sigma) pH 7.5 10 mM, NaCl 150 mM and 0.02% thimerosal (Sigma). After 3×10 min. washes in PBS/TWEEN® 20 (PBS/T; 0.02%, Sigma), primary antibodies (1/1000) were incubated with the membranes in PBS/TWEEN® for 60 min. Following another series of washes in PBS/T (3×10 min), the membranes were incubated with a secondary antibody (Peroxidase conjugated anti rabbit or anti mouse, IgG Jackson ImmunoResearch, West Grove, Calif.) at a 1/2500 dilution in 2% milk in PBS solution for 60 min. After another 3×10 min washes, the membranes were incubated with the ECL reagent (for 60 seconds) and exposed to X-ray film.
# albumin = biological target: T3, albumin (Rattus norvegicus, UniProt P02770); assay: Pen 9 western blot of rat tissue lysates after intraperitoneal penicillin G; type: in vivo; conditions: Lewis rats, 50 mg/rat intraperitoneally, 2 hours later
# T3 construct: Rat tissues were ground with a tissue grinder in lysis buffer; from tissue; host or cells: various tissue lysates and serum of Lewis rats, 2 hours after i.p. penicillin G
# Procedure: Rat tissues were ground with a tissue grinder in lysis buffer. The homogenate was centrifuged 14000 g for 15 min in 4° C. and the supernatant was used for western blotting. The protein concentration was determined using the BIO-RAD DC™ protein assay (Bio-Rad laboratories, Hercules, Calif.). Following electrophoresis in SDS gel in a mini-gel apparatus (Bio-Rad), the gels were electro-transferred to nitrocellulose membranes (Schleicher and schuell, Dassel, Germany). The nitrocellulose membranes were washed with distilled water for 5 min, and then blocked for 60 min. using a blocking solution composed of 2% bovine serum albumin (Fraction V, Sigma, St. Louis Mo.), 2.5% milk powder (Bio-Rad), Tris (Sigma) pH 7.5 10 mM, NaCl 150 mM and 0.02% thimerosal (Sigma). After 3×10 min. washes in PBS/TWEEN® 20 (PBS/T; 0.02%, Sigma), primary antibodies (1/1000) were incubated with the membranes in PBS/TWEEN® for 60 min. Following another series of washes in PBS/T (3×10 min), the membranes were incubated with a secondary antibody (Peroxidase conjugated anti rabbit or anti mouse, IgG Jackson ImmunoResearch, West Grove, Calif.) at a 1/2500 dilution in 2% milk in PBS solution for 60 min. After another 3×10 min washes, the membranes were incubated with the ECL reagent (for 60 seconds) and exposed to X-ray film. […]
# [4] = free penicillin; cited from earlier work
# T2 sequence (P02768 25-609): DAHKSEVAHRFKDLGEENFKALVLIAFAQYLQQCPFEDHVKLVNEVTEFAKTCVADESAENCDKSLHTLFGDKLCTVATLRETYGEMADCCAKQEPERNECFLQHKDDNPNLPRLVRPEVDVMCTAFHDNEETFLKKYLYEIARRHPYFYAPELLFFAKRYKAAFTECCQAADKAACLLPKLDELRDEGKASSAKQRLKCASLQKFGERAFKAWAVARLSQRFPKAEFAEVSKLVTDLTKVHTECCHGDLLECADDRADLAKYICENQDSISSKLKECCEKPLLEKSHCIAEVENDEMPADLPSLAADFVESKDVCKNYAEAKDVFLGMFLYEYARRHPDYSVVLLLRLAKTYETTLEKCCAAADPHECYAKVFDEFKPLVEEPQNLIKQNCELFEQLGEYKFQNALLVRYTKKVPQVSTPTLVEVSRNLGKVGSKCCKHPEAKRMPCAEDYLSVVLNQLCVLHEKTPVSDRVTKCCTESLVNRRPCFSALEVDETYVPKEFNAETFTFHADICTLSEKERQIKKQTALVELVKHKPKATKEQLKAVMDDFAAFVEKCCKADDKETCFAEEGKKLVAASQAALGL
# T1 sequence (P02768 25-609): as above
molecule,measurement,setting,value
CO/N=C(\C(=O)N[C@@H]1C(=O)N2C(C(=O)O)=C(CSc3nc(=O)c(=O)[nH]n3C)CS[C@H]12)c1csc(N)n1 [ceftriaxone],incidence of diabetes,NOD mice,60%
same,severity of adoptive EAE in recipient rats,"[1]; BP10 line stimulated 3 days with MBP in presence of 50 μg/ml antibiotic, 10^7 cells per rat",enhanced EAE severity
"CC1(C)S[C@@H]2[C@H](NC(=O)Cc3ccccc3)C(=O)N2[C@H]1C(=O)O [penicillin, benzylpenicillin]",radioactive penicillin-protein band in T-cell lysates,[2],single major penicillin-protein radioactive band was detected at 67 kD
same,Pen 9 reactivity with lysates of antibiotic-treated T cells,[3],reacted specifically to a major protein of the penicillin-treated T cells
same,67 kD band representing penicilloylated albumin in tissue lysates,albumin,appears in all tissues examined and is most abundant in serum
same,half-life,[4],42 min
"Penicillin-modified rat albumin: rat albumin modified with penicillin (conjugate, UniProt P02770 25-608, looked up, penicillin-modified) Albumin: EAHKSEIAHRFKDLGEQHFKGLVLIAFSQYLQKCPYEEHIKLVQEVTDFAKTCVADENAENCDKSIHTLFGDKLCAIPKLRDNYGELADCCAKQEPERNECFLQHKDDNPNLPPFQRPEAEAMCTSFQENPTSFLGHYLHEVARRHPYFYAPELLYYAEKYNEVLTQCCTESDKAACLTPKLDAVKEKALVAAVRQRMKCSSMQRFGERAFKAWAVARMSQRFPNAEFAEITKLATDVTKINKECCHGDLLECADDRAELAKYMCENQATISSKLQACCDKPVLQKSQCLAEIEHDNIPADLPSIAADFVEDKEVCKNYAEAKDVFLGTFLYEYSRRHPDYSVSLLLRLAKKYEATLEKCCAEGDPPACYGTVLAEFQPLVEEPKNLVKTNCELYEKLGEYGFQNAVLVRYTQKAPQVSTPTLVEAARNLGRVGTKCCTLPEAQRLPCVEDYLSAILNRLCVLHEKTPVSEKVTKCCSGSLVERRPCFSALTVDETYVPKEFKAETFTFHSDICTLPDKEKQIKKQTALAELVKHKPKATEDQLKTVMGDFAQFVDKCCKAADKDNCFATEGPNLVARSKEALA",severity of adoptive EAE mediated by the BP10 line,"[1]; BP10 line stimulated 3 days with 5 mg/ml in stimulation medium, control untreated line",could also enhance the encephalogenicity of the BP10 line

# — patent US9474744B2, “Beta-lactam compounds for treating diabetes” (STEM CELL MEDICINE LTD., priority 2011, dated 2016)
